Measurements published in EPA's ToxValDB 9.5 (doi:10.2903/j.efsa.2011.2334).
≈ marks a conversion by molar mass, not a printed value.

How the values were obtained:
Lepomis macrochirus = conditions: acute; duration: 96 hours; mortality
Anas platyrhynchos = conditions: short-term; oral; feed; mortality
Canidae = conditions: oral, gavage, Dog Other
Aleochara bilineata = conditions: chronic/long-term; duration: 28 days; reproduction
Colinus virginianus = conditions: acute; oral; mortality
Oncorhynchus mykiss = conditions: acute; duration: 96 hours; mortality

Compound `CNC(=S)[S-].[Na+]` [Metam-sodium] has an LC50 (Lepomis macrochirus) of over 0.175 µg/mL, an LC50 (Anas platyrhynchos) of over 324 mg/kg-day and an NOAEL (Canidae; chronic, duration: 1 years, M/F, hematological) of 0.1 mg/kg-day. It also gave an LEL (Aleochara bilineata) of 608000 g/ha, an NOAEL (Rattus norvegicus; developmental, F, development) of 10 mg/kg-day and an LD50 (Colinus virginianus) of 211 mg/kg-day.
For `CN=C=S` [Methyl isothiocyanate], the LC50 (Anas platyrhynchos) was over 183 mg/kg-day, the NOAEL (Canidae; subchronic, duration: 90 days, body weight) was 0.4 mg/kg-day and the LC50 (Oncorhynchus mykiss) was 0.0531 µg/mL (≈ 0.726 µM). It also gave an LD50 (Rattus norvegicus; acute, mortality) of 147 mg/kg-day, an NOAEL (Rattus norvegicus; chronic, duration: 2 years, oral, drinking water, hematological) of 0.44 mg/kg-day and an NOAEL (Rattus norvegicus; repeat dose other, oral, gavage, body weight) of 3 mg/kg-day. The LD50 (Colinus virginianus) was 119 mg/kg-day.
